# Patent US9840464B2, “IAP binding compounds” (TetraLogic Birinapant UK Ltd., priority 2004, dated 2017)
# Where a name gives a salt, the structure may show the parent alone.
# Target: XIAP-BIR3 (Homo sapiens, UniProt P98170)
# Test: XIAP BIR3 fluorescence polarization binding assay (competition with AbuRPF-K(5-Fam)-NH2)
# Conditions: 5 nM AbuRPF-K(5-Fam)-NH2, 40 nM XIAP-BIR3, pH 7.5; Kd calculated from measured IC50; read-out: KD Range
# Procedure: Binding constants (Kd) were measured using fluorescence polarization as described by Zaneta Nikolovska-Coleska, Renxiao Wang, Xueliang Fang, Hongguang Pan, York Tomita, Peng Li, Peter P. Roller, Krzysztof Krajewski, Naoyuki Saito, Jeanne Stuckey and Shaomeng Wang, in “Development and Optimization of a Binding Assay for the XIAP BIR3 Domain Using Fluorescence Polarization”, Analytical Biochemistry 2004, 332, 261-273). Briefly, test IAP binding compounds at various concentrations for binding measurements were mixed with 5 nM fluorescently labeled peptide (AbuRPF-K(5-Fam)-NH2) and 40 nM of XIAP-BIR3 for 15 minutes at room temperature in 100 μL of 0.1M Potassium Phosphate buffer, pH 7.5 containing 100 μg/ml bovine γ-globulin. Following incubation, the polarization values (mP) were measured on a Victor^2V using a 485 nm excitation filter and a 520 nm emission filter. IC50 values were determined from the plot using nonlinear least-squares analysis using GraphPad Prism. The Kd values of competitive inhibitors were calculated using the equation described by Zaneta Nikolovska-Coleska et al. based upon the measured IC50 values, the Kd value of the probe and XIAP BIR3 complex, and the concentrations of the protein and probe in the competition assay. In various examples of IAP binding or IAP binding cargo molecules ranges for Kd values: Group A: Kd<0.1 μM; Group B: Kd=0.1-1 μM; Group C: Kd=1-10 μM; Group D: Kd>10 μM.
# Sequence of XIAP-BIR3 (P98170 241-356 limits assumed): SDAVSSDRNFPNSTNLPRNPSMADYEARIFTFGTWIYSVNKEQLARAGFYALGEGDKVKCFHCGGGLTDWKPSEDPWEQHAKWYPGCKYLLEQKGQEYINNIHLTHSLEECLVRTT
row,Compound,Kd [nM]
1,2-Amino-N-{2-methyl-1-[2-(5-pyridin-2-yl-benzofuran-3-ylmethyl)-pyrrolidine-1-carbonyl]-propyl}-propionamide [Entry 8-79],1000 to 10000
2,"CC(N)C(=O)NC(C(=O)N1CCCC1CCCOc1ccccc1-c1ccccc1)C(C)C (single isomer, unassigned) [Entry 4-36]",> 10000
3,"CC(N)C(=O)NC(C(=O)N1CC(Oc2ccccc2)CC1Cc1coc2ccccc12)C(C)C (single isomer, unassigned) [Entry 5-53]",1000 to 10000
4,"CC(C)[C@H](NC(=O)[C@H](C)N)C(=O)N1C[C@@H](Oc2ccccc2)C[C@H]1COc1ccccc1 [Entry 2-1, 2S-Amino-N-[2-methyl-1S-(4S-phenoxy-2S-phenoxymethyl-pyrrolidine-1-carbonyl)-propyl]-propionamide hydrochloride]",100 to 1000
5,CN[C@@H](C)C(=O)N[C@H](C(=O)N1C[C@@H](Oc2ccccc2)C[C@H]1COc1ccccc1)C(C)C [Entry 2-2],100 to 1000
6,CC(N)C(=O)NC(C(=O)N1CCCC1COc1ccccc1)C(C)C (centres unmarked) [Entry 2-3],100 to 1000
7,CNC(C)C(=O)NC(C(=O)N1CCCC1COc1ccccc1-c1ccccc1)C(C)C (centres unmarked) [Entry 2-5],100 to 1000
8,CC(N)C(=O)NC(C(=O)N1CCCC1COc1ccccc1-c1ccccc1)C(C)C (centres unmarked) [Entry 2-6],100 to 1000
9,C#CCOC(C)[C@H](NC(=O)[C@H](C)N)C(=O)N1C[C@@H](Oc2ccccc2)C[C@H]1COc1ccccc1 (some centres unmarked) [Entry 2-7],< 100
10,CC(C)[C@H](NC(=O)[C@H](C)N)C(=O)N1C[C@@H](Oc2ccccc2)C[C@H]1/C=C/COc1ccccc1 [Entry 3-8],100 to 1000
11,CC(C)[C@H](NC(=O)[C@H](C)N)C(=O)N1C[C@@H](Oc2ccccc2)C[C@H]1/C=C/COc1ccccc1Br [Entry 3-9],100 to 1000
12,CC(C)[C@H](NC(=O)[C@H](C)N)C(=O)N1C[C@@H](Oc2ccccc2)C[C@H]1/C=C/COc1cccc(Cl)c1Cl [Entry 3-10],100 to 1000
13,CC(C)[C@H](NC(=O)[C@H](C)N)C(=O)N1C[C@@H](Oc2ccccc2)C[C@H]1/C=C/COc1ccc(Cl)cc1Cl [Entry 3-11],100 to 1000
14,"CCc1ccccc1OC/C=C/[C@@H]1C[C@H](Oc2ccccc2)CN1C(=O)[C@@H](NC(=O)[C@H](C)N)C(C)C [Entry 3-12, trans-2S-Amino-N-(1S-{2S-[3-(2-ethyl-phenoxy)-propenyl]-4S-phenoxy-pyrrolidine-1-carbonyl}-2-methyl-propyl)-propionamide]",100 to 1000
15,CN[C@@H](C)C(=O)N[C@H](C(=O)N1C[C@@H](Oc2ccccc2)C[C@H]1/C=C/COc1cccc(Cl)c1Cl)C(C)C [Entry 3-13],100 to 1000
16,CC(C)[C@H](NC(=O)[C@H](C)N)C(=O)N1C[C@@H](Oc2ccccc2)C[C@H]1/C=C/COc1cccc(Br)c1 [Entry 3-14],100 to 1000
17,CC(C)Oc1ccccc1OC/C=C/[C@@H]1C[C@H](Oc2ccccc2)CN1C(=O)[C@@H](NC(=O)[C@H](C)N)C(C)C [Entry 3-15],100 to 1000
18,CC(C)[C@H](NC(=O)[C@H](C)NC(=O)OC(C)(C)C)C(=O)N1C[C@@H](Oc2ccccc2)C[C@H]1/C=C/COc1ccc2c(c1)CCCC2 [Entry 3-16],> 10000
19,COc1ccccc1OC/C=C/[C@@H]1C[C@H](Oc2ccccc2)CN1C(=O)[C@@H](NC(=O)[C@H](C)N)C(C)C [Entry 3-18],100 to 1000
20,COc1ccccc1OC/C=C/[C@@H]1C[C@H](Oc2ccccc2)CN1C(=O)[C@@H](NC(=O)CN)C(C)C [Entry 3-19],> 10000
21,CC(C)[C@H](NC(=O)[C@H](C)N)C(=O)N1C[C@@H](Oc2ccccc2)C[C@H]1/C=C/COc1ccccc1-c1ccccc1 [Entry 3-20],100 to 1000
22,Cc1cccc(C)c1OC/C=C/[C@@H]1C[C@H](Oc2ccccc2)CN1C(=O)[C@@H](NC(=O)[C@H](C)N)C(C)C [Entry 3-22],< 100
23,"CCc1ccccc1OCCC[C@H]1C[C@H](Oc2ccccc2)CN1C(=O)[C@@H](NC(=O)[C@H](C)N)C(C)C [Entry 4-25, 2S-Amino-N-(1S-{2S-[3-(2-ethyl-phenoxy)-propyl]-4S-phenoxy-pyrrolidine-1-carbonyl}-2-methyl-propyl)-propionamide]",100 to 1000
